Test results reported in publication doi:10.1101/2024.01.24.577111v1 (biorxiv, 2024).

Columns and labels:
rat TRPM8 = rat TRPM8 (Rattus norvegicus, UniProt Q8R455); assay: Fura-2 ratiometric calcium imaging, agonist dose-response; type: cell-based
mouse TRPM8 (mTRPM8) = mouse TRPM8 (mTRPM8) (Mus musculus, UniProt Q8R4D5); assay: whole-cell patch clamp, shift of voltage for half-maximal activation; type: cell-based; conditions: agonist; 30 µM rapamycin, calcium-free, pH 7.4, 33 °C
mouse TRPM8 (mTRPM8), sequence (Q8R4D5 whole entry): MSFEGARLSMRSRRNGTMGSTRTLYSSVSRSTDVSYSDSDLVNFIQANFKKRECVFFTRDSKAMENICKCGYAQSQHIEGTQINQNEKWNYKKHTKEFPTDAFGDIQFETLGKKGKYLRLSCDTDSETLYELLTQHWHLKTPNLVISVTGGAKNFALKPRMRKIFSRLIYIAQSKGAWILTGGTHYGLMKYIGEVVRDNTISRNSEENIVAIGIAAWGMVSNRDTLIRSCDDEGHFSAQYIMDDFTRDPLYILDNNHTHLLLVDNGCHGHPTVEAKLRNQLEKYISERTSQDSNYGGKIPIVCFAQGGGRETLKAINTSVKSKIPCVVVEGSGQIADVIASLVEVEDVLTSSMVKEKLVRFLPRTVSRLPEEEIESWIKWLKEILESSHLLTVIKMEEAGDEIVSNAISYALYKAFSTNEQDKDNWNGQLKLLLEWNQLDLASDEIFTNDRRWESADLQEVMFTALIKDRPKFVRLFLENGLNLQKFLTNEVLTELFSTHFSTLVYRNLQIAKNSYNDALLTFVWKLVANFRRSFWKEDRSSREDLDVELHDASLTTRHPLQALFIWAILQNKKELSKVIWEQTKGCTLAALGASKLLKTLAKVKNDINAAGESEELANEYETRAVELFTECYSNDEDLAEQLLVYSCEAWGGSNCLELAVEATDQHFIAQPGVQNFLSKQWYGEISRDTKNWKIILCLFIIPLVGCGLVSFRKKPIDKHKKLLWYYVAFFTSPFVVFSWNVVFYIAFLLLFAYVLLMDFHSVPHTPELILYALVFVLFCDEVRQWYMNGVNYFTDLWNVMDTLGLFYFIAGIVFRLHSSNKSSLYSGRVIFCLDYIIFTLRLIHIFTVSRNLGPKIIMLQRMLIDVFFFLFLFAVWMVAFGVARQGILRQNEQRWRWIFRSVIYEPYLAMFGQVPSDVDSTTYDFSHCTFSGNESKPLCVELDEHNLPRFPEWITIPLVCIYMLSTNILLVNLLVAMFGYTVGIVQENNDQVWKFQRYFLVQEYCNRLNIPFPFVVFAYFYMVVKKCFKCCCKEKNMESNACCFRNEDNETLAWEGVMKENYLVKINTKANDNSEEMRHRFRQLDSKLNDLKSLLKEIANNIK

rat TRPM8, sequence (Q8R455 whole entry): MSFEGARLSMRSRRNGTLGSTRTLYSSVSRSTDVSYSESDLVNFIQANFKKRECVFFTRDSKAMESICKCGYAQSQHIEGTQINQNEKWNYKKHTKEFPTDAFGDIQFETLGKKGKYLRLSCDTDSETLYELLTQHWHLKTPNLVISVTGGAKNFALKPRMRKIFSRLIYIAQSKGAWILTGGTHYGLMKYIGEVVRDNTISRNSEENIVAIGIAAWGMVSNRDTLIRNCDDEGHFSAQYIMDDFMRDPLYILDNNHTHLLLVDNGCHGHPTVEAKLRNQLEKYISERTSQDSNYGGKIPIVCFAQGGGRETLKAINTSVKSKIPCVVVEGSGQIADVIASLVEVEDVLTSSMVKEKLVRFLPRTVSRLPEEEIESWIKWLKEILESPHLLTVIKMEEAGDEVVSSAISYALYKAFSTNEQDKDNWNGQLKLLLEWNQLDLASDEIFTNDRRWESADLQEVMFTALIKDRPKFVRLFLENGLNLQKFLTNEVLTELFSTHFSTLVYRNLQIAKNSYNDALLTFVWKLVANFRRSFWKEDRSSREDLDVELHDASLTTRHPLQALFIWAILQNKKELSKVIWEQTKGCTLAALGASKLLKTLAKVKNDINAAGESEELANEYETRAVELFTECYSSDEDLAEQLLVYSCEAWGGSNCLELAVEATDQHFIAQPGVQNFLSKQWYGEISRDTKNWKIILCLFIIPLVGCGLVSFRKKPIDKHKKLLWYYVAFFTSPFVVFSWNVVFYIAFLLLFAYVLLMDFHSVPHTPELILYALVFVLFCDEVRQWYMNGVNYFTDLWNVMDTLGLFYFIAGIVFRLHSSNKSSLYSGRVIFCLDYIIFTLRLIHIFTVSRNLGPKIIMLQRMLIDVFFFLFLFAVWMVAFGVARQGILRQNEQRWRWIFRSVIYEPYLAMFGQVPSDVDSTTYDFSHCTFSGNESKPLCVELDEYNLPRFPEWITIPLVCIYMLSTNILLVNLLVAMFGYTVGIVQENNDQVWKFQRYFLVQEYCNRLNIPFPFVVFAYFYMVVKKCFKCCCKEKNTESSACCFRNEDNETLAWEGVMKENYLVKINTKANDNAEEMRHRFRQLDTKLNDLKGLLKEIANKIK

## CO[C@H]1C[C@@H]2CC[C@@H](C)[C@@](O)(O2)C(=O)C(=O)N2CCCC[C@H]2C(=O)O[C@H]([C@H](C)C[C@@H]2CC[C@@H](O)[C@H](OC)C2)CC(=O)[C@H](C)/C=C(\C)[C@@H](O)[C@@H](OC)C(=O)[C@H](C)C[C@H](C)/C=C/C=C/C=C/1C [rapamycin]
Rat TRPM8
  EC50: 6.5 ± 1.5 µM
Mouse TRPM8 (mTRPM8)
  ΔV1/2: −102.1 ± 5.2 mV
